# Assay results taken from ChEMBL document CHEMBL3885881, “DrugMatrix”.
# Species: Rattus norvegicus
# Assay type: toxicity, organism-based, Sprague-Dawley
# Settings: in vivo, po, route oral GAVAGE, […]; for ABSOLUTE EOSINOPHIL / ABSOLUTE LYMPHOCYTE / ABSOLUTE MONOCYTE / ABSOLUTE SEGMENTED NEUTROPHIL / BASOPHIL / EOSINOPHIL / ERYTHROCYTE COUNT / HEMATOCRIT / HEMOGLOBIN / LEUKOCYTE COUNT / LYMPHOCYTE / MEAN CORPUSCULAR HEMOGLOBIN / MEAN CORPUSCULAR HEMOGLOBIN CONCENTRATION / MEAN CORPUSCULAR VOLUME / MONOCYTE / NEUTROPHIL / NUCLEATED RED BLOOD CELLS / PLATELET COUNT: tissue Blood; for ALANINE AMINOTRANSFERASE / ALKALINE PHOSPHATASE / ASPARTATE AMINOTRANSFERASE / BLOOD UREA NITROGEN / CARBON DIOXIDE / CHLORIDE / CHOLESTEROL / CREATINE PHOSPHOKINASE / CREATININE / GLUCOSE / LACTATE DEHYDROGENASE / LIPASE / PHOSPHORUS / POTASSIUM / SODIUM / TOTAL BILIRUBIN / TOTAL PROTEIN / URIC ACID: tissue Plasma
# [1] = 0 mg/kg, 6 h, vehicle control, dose level Control, time 0.25 day
# [2] = 0 mg/kg, 24 h, vehicle control, dose level Control, time 1 day
# [3] = 100 mg/kg, 6 h, dose level Low, time 0.25 day
# Description: DrugMatrix - Regimen: Single
smiles,measurement,setting,value
Cc1ccc(C)c(OCCCC(C)(C)C(=O)O)c1 [GEMFIBROZIL],ABSOLUTE EOSINOPHIL,[1],0 CELLS/uL
same,ABSOLUTE LYMPHOCYTE,[1],8631 CELLS/uL
same,ABSOLUTE MONOCYTE,[1],171.17 CELLS/uL
same,ABSOLUTE SEGMENTED NEUTROPHIL,[1],1214.5 CELLS/uL
same,BASOPHIL,[1],0%
same,EOSINOPHIL,[1],0%
same,ERYTHROCYTE COUNT,[1],5.42 x10E6/uL
same,HEMATOCRIT,[1],34.7%
same,HEMOGLOBIN,[1],13.67 G/DL
same,LEUKOCYTE COUNT,[1],10.02 x10E3/uL
same,LYMPHOCYTE,[1],86.17%
same,MEAN CORPUSCULAR HEMOGLOBIN,[1],25.27 pg
same,MEAN CORPUSCULAR HEMOGLOBIN CONCENTRATION,[1],39.42 G/DL
same,MEAN CORPUSCULAR VOLUME,[1],64.12 fL
same,MONOCYTE,[1],1.67%
same,NEUTROPHIL,[1],12.17%
same,NUCLEATED RED BLOOD CELLS,[1],0 /100WBC
same,PLATELET COUNT,[1],1050 x10E3/uL
same,ALANINE AMINOTRANSFERASE,[1],61 u/L
same,ALKALINE PHOSPHATASE,[1],312.5 u/L
same,ASPARTATE AMINOTRANSFERASE,[1],117.5 u/L
same,BLOOD UREA NITROGEN,[1],8.67 mg/dL
same,CARBON DIOXIDE,[1],26.33 mmol/L
same,CHLORIDE,[1],100.5 MEQ/L
same,CHOLESTEROL,[1],72 mg/dL
same,CREATINE PHOSPHOKINASE,[1],283.33 u/L
same,CREATININE,[1],0.28 mg/dL
same,GLUCOSE,[1],172 mg/dL
same,LACTATE DEHYDROGENASE,[1],95.33 u/L
same,LIPASE,[1],10.17 u/L
same,PHOSPHORUS,[1],9.9 mg/dL
same,POTASSIUM,[1],5.75 MEQ/L
same,SODIUM,[1],142.4 MEQ/L
same,TOTAL BILIRUBIN,[1],0.3 mg/dL
same,TOTAL PROTEIN,[1],5.43 G/DL
same,URIC ACID,[1],0.73 mg/dL
same,ABSOLUTE EOSINOPHIL,[2],90.83 CELLS/uL
same,ABSOLUTE LYMPHOCYTE,[2],14725.17 CELLS/uL
same,ABSOLUTE MONOCYTE,[2],220 CELLS/uL
same,ABSOLUTE SEGMENTED NEUTROPHIL,[2],1080.67 CELLS/uL
same,BASOPHIL,[2],0%
same,EOSINOPHIL,[2],0.67%
same,ERYTHROCYTE COUNT,[2],5.3 x10E6/uL
same,HEMATOCRIT,[2],33.4%
same,HEMOGLOBIN,[2],13.4 G/DL
same,LEUKOCYTE COUNT,[2],16.12 x10E3/uL
same,LYMPHOCYTE,[2],91.17%
same,MEAN CORPUSCULAR HEMOGLOBIN,[2],25.3 pg
same,MEAN CORPUSCULAR HEMOGLOBIN CONCENTRATION,[2],40.12 G/DL
same,MEAN CORPUSCULAR VOLUME,[2],63.05 fL
same,MONOCYTE,[2],1.5%
same,NEUTROPHIL,[2],6.67%
same,NUCLEATED RED BLOOD CELLS,[2],0 /100WBC
same,PLATELET COUNT,[2],1062 x10E3/uL
same,ALANINE AMINOTRANSFERASE,[2],69 u/L
same,ALKALINE PHOSPHATASE,[2],269 u/L
same,ASPARTATE AMINOTRANSFERASE,[2],83.67 u/L
same,BLOOD UREA NITROGEN,[2],14 mg/dL
same,CARBON DIOXIDE,[2],29 mmol/L
same,CHLORIDE,[2],100.83 MEQ/L
same,CHOLESTEROL,[2],66.67 mg/dL
same,CREATINE PHOSPHOKINASE,[2],355 u/L
same,CREATININE,[2],0.18 mg/dL
same,GLUCOSE,[2],161.33 mg/dL
same,LACTATE DEHYDROGENASE,[2],123.33 u/L
same,LIPASE,[2],10.67 u/L
same,PHOSPHORUS,[2],8.83 mg/dL
same,POTASSIUM,[2],6.06 MEQ/L
same,SODIUM,[2],142.45 MEQ/L
same,TOTAL BILIRUBIN,[2],0.2 mg/dL
same,TOTAL PROTEIN,[2],5.72 G/DL
same,URIC ACID,[2],1.27 mg/dL
same,ABSOLUTE EOSINOPHIL,[3],97 CELLS/uL
same,ABSOLUTE LYMPHOCYTE,[3],13743.17 CELLS/uL
same,ABSOLUTE MONOCYTE,[3],354.83 CELLS/uL
same,ABSOLUTE SEGMENTED NEUTROPHIL,[3],1355 CELLS/uL
same,BASOPHIL,[3],0%
same,EOSINOPHIL,[3],0.67%
same,ERYTHROCYTE COUNT,[3],5.46 x10E6/uL
same,HEMATOCRIT,[3],35.92%
same,HEMOGLOBIN,[3],13.93 G/DL
same,LEUKOCYTE COUNT,[3],15.55 x10E3/uL
same,LYMPHOCYTE,[3],88.33%
same,MEAN CORPUSCULAR HEMOGLOBIN,[3],25.62 pg
same,MEAN CORPUSCULAR HEMOGLOBIN CONCENTRATION,[3],38.85 G/DL
same,MEAN CORPUSCULAR VOLUME,[3],65.98 fL
same,MONOCYTE,[3],2.17%
same,NEUTROPHIL,[3],8.83%
same,NUCLEATED RED BLOOD CELLS,[3],0 /100WBC
same,PLATELET COUNT,[3],1082.83 x10E3/uL
same,ALANINE AMINOTRANSFERASE,[3],47.5 u/L
same,ALKALINE PHOSPHATASE,[3],284.67 u/L
same,ASPARTATE AMINOTRANSFERASE,[3],80.83 u/L
same,BLOOD UREA NITROGEN,[3],8 mg/dL
same,CARBON DIOXIDE,[3],26.67 mmol/L
same,CHLORIDE,[3],100.17 MEQ/L
same,CHOLESTEROL,[3],76 mg/dL
same,CREATINE PHOSPHOKINASE,[3],275.33 u/L
same,CREATININE,[3],0.13 mg/dL
same,GLUCOSE,[3],141.33 mg/dL
same,LACTATE DEHYDROGENASE,[3],112.33 u/L
same,LIPASE,[3],11 u/L
same,PHOSPHORUS,[3],11.7 mg/dL
same,POTASSIUM,[3],6.32 MEQ/L
same,SODIUM,[3],141.92 MEQ/L
same,TOTAL BILIRUBIN,[3],0.37 mg/dL
same,TOTAL PROTEIN,[3],5.85 G/DL
same,URIC ACID,[3],1.2 mg/dL
